These are literature values, as cited in US7361766B2, “Bicyclic heterocycles as cannabinoid receptor modulators” (Bristol-Myers Squibb Company, priority 2005, dated 2008).

For data set [1] the following is noted: chronic administration for two weeks.
A further data set relates to CB-1. The conditions noted are these: multiple species including humans.
For data set [2] the following is noted: human subjects, 16 week trial period.

Like-named read-outs stand apart in the source and are kept apart here.

In the case of `Cc1c(C(=O)NN2CCCCC2)nn(-c2ccc(Cl)cc2Cl)c1-c1ccc(I)cc1` [AM-251], in data set [1], the body weight result is on record as “substantial body weight reduction”.

For `CCCCCc1cc(O)c2c(c1)OC(C)(C)[C@@H]1CCC(C)=C[C@@H]21` [Delta-9 THC, Delta-9-tetrahydrocannabinol], in the data set with CB-1, the body weight result is listed as “weight gain” and the food intake result is “increased food intake”.

For `Cc1c(C(=O)NN2CCCCC2)nn(-c2ccc(Cl)cc2Cl)c1-c1ccc(Cl)cc1` [SR-141716], the body weight entry in data set [2] is given as “dose-dependently reduced body weight”.

Regarding `CCCCC/C=C\C/C=C\C/C=C\C/C=C\CCCC(=O)NCCO` [anandamide], in the data set on CB-1, the body weight entry is recorded as “weight gain” and the food intake result was “increased food intake”.
